Measured values: patent US20230126310A1 (priority 2020, published 2023)
Counter-ions that a name gives are not always drawn. Like-named read-outs stand apart in the source and are kept apart here.

How the values were obtained:
SARS-CoV-2 [1] = assay: microbe, parasite or virus in culture; conditions: for inhibition at 10 µM: read-out: % Inh. (% Inhibition of SARS-CoV-2)
[2] = Compound cytotoxicity against CaCo-2 cells at 48 hours; format: cell-based, Human; conditions: human
Description: The cytotoxicity of the profiled compounds towards CaCo-2 cells at 48 hours was assessed. […] After 48 hours, cytotoxicity was evaluated using both digital phase contrast readout as described above and ATP determination (Cell titre-glo, Promega Corp).

SARS-CoV-2 [3] = conditions: comparative experiments, Examples 1 and 2
[4] = tested on: SARS-CoV-2 (BetaCov/Belgium/GHB-03021/2020); assay: microbe, parasite or virus in culture; format: cell-based; conditions: for Emax: read-out: Maximum confluence reached (%)
[5] = Severe acute respiratory syndrome coronavirus 2, Caco-2, 48 h
[6] = Severe acute respiratory syndrome coronavirus 2, Caco-2, 48 h, read-out: pIC50 (converted)
[7] = CaCo-2 cells, Table 5, further results of Examples 1 and 2, mean ± spread
[8] = comparative experiments, CaCo-2 cells, 48 hours
[9] = Severe acute respiratory syndrome coronavirus 2, 120 h

Row | SMILES | IC50 (SARS-CoV-2 [1]; [5]) | inhibition at 10 µM (SARS-CoV-2 [1]; [5]) | IC50 (SARS-CoV-2 [1]; [6]) | CC50 at 48 h [2, 7] | also measured
1 | Clc1ccc(Nc2nnc(Cc3ccncc3)c3ccccc23)cc1 [vatalanib] | 24.4 µM | 85.9% | 24.5 µM | 64.2 ± 57.4 µM | –
2 | Cc1cccc(C)c1NC(=O)CN1CCN(CCCC(c2ccc(F)cc2)c2ccc(F)cc2)CC1 [lidoflazine] | 21.3 µM | 95.9% | 21.4 µM | 31.9 ± 11 µM | –
3 | Nc1nc2nc[nH]c2c(=S)[nH]1 [TIOGUANINE] | – | – | – | – | % Inh (% inhibition of virus infection) (SARS-CoV-2 [3]): 99.9%; CC50 at 48 h [2, 8]: 2.21 ± 1.48 µM
4 | O=C(O)Cc1cccc(OCCCN(Cc2cccc(C(F)(F)F)c2Cl)CC(c2ccccc2)c2ccccc2)c1 [GW-3965] | – | 91.4% | – | – | Emax [4, 9]: 38%
5 | C=CCNc1nc(NCC=C)nc(N2CCN(C(c3ccc(F)cc3)c3ccc(F)cc3)CC2)n1 [Almitrine dimesilate] | 1.21 µM | 93.2% | 1.2 µM | 102 ± 73.6 µM | –
6 | S=C(NCc1ccc2c(c1)OCO2)N1CCN(c2ncnc3c2oc2ccccc23)CC1 [Amuvatinib (MP-470), Amuvatinib] | – | – | 0.0302 µM | 0.06 ± 0.01 µM | –
7 | O=C(Nc1nc(-c2cc(Cl)cs2)c(N2CCN(C3CCCCC3)CC2)s1)c1cnc(N2CCC(C(=O)O)CC2)c(Cl)c1 [Avatrombopag] | 7.17 µM | 95.9% | 7.24 µM | 20.9 ± 29.5 µM | –
8 | CC[C@@H]([C@H](C)O)n1ncn(-c2ccc(N3CCN(c4ccc(OC[C@@H]5CO[C@@](Cn6cncn6)(c6ccc(F)cc6F)C5)cc4)CC3)cc2)c1=O [Posaconazole] | 2.37 µM | – | 2.34 µM | 14.6 ± 0.67 µM | –
9 | CC1=C(CCC(=O)O)c2cc3[nH]c(cc4nc(cc5[nH]c(cc1n2)c(C)c5C(C)O)C(C)=C4C(C)O)c(C)c3CCC(=O)O (stereo not shown) [hematoporphyrin] | – | 96.8% | – | 160 ± 139 µM | –
10 | CC(=O)N1CCN(c2ccc(OCC3COC(Cn4ccnc4)(c4ccc(Cl)cc4Cl)O3)cc2)CC1 (stereo not shown) [KETOCONAZOLE] | – | 87.1% | – | 28.6 ± 4.97 µM | –
11 | COC(=O)C[C@](O)(CCCC(C)(C)O)C(=O)O[C@@H]1C(OC)=C[C@]23CCCN2CCc2cc4c(cc2[C@H]13)OCO4 [homoharringtonine] | 2.25 µM | 154% | 2.24 µM | 1.72 ± 1.89 µM | –
12 | Cc1cc(-c2ncc(CC(=O)Nc3ccc(-c4cnccn4)cn3)cc2C)ccn1 [LGK-974] | 2.33 µM | 105% | 2.34 µM | 7.61 ± 0.06 µM | –
13 | CNC(=O)c1ccc(C)c(-n2c(C)cc(OCc3ccc(F)cc3F)c(Br)c2=O)c1 [PH-797804] | 20.7 µM | 81.5% | 20.4 µM | 20 ± 3.1 µM | –
14 | O=c1ccc2ccc(OCCCCN3CCN(c4cccc5sccc45)CC3)cc2[nH]1 [Brexpiprazole] | 22.9 µM | 84.8% | 22.9 µM | 50.6 ± 68.7 µM | –
15 | OC(c1cc(C(F)(F)F)nc2c(C(F)(F)F)cccc12)C1CCCCN1 (stereo not shown) [MEFLOQUINE HYDROCHLORIDE] | 28.9 µM | 93.3% | 28.8 µM | 33 ± 7.96 µM | –
16 | O=C(CCCN1CCC2(CC1)C(=O)N(Cc1cccc(F)c1)CN2c1ccccc1)c1ccc(F)cc1.O=C(O)/C=C\C(=O)O [3′-fluorobenzylspiperone] | – | – | – | – | Maximum confluence reached (%) [4]: 43.04%
17 | Cc1c(C(=O)Nc2ccc(N3C[C@@H](C)O[C@@H](C)C3)nc2)cccc1-c1ccc(OC(F)(F)F)cc1 [LDE225 (NVP-LDE225, Erismodegib), Erismodegib] | 7.03 µM | 93.5% | 7.08 µM | 2.26 ± 1.28 µM | –
18 | CNC(=O)c1cc(Oc2ccc(NC(=O)Nc3ccc(Cl)c(C(F)(F)F)c3)cc2)ccn1 [Sorafenib Tosylate] | 1.21 µM | 78.7% | 1.2 µM | 1.17 ± 0.43 µM | –
19 | CC/C(=C(\c1ccc(O)cc1)c1ccc(OCCNC)cc1)c1ccccc1 [Endoxifen HCl] | – | – | – | – | IC50 [4, 9]: 6.34 µM; Emax [4, 9]: 35.7%

Row | SMILES | IC50 (SARS-CoV-2 [1]; [5]) | inhibition at 10 µM (SARS-CoV-2 [1]; [5]) | IC50 (SARS-CoV-2 [1]; [6]) | CC50 at 48 h [2, 7] | also measured
20 | C[C@@H]1C[C@@H]([C@H](O)CC2CC(=O)NC(=O)C2)C(=O)[C@@H](C)C1 [CYCLOHEXIMIDE] | – | – | – | – | Emax [4, 9]: 63.7%
21 | CN1CC[C@H](c2c(O)cc(O)c3c(=O)cc(-c4ccccc4Cl)oc23)[C@H](O)C1 [alvocidib] | – | 87.8% | – | 0.06 µM | –
22 | CC(C)c1cc(C(C)C)c(CC(=O)NS(=O)(=O)Oc2c(C(C)C)cccc2C(C)C)c(C(C)C)c1 [Avasimibe (CI-1011), Avasimibe] | 10.9 µM | 91.4% | 11 µM | 13.7 ± 6.18 µM | –
23 | CC(C)(C)Cn1c(N)nc2ccc(-c3[nH]c(C(C)(C)C)nc3-c3ccc(F)cc3)nc21 [LY2228820, Ralimetinib] | – | 112% | – | 56.2 ± 9.79 µM | –
24 | CC(C)S(=O)(=O)NC[C@H](C)c1ccc(-c2ccc(CCNS(C)(=O)=O)cc2)cc1 [Mibampator] | 2.23 µM | 90.1% | 2.24 µM | 8.66 ± 1.75 µM | –
25 | CCOC(=O)O[C@]1(C(=O)OCCl)CC[C@H]2[C@@H]3CCC4=CC(=O)C=C[C@]4(C)[C@H]3[C@@H](O)C[C@@]21C [Loteprednol etabonate] | 21.3 µM | 102% | 21.4 µM | 49 ± 45.9 µM | –
26 | CNC(=O)c1cc(Oc2ccc(NC(=O)Nc3ccc(Cl)c(C(F)(F)F)c3)c(F)c2)ccn1 [Regorafenib (BAY 73-4506), Regorafenib] | – | 91.5% | – | 0.97 ± 0.6 µM | –
27 | Cc1cc(C)c(Nc2ccnc(Nc3ccc(C#N)cc3)n2)c(C)c1 [Dapivirine (TMC120), Dapivirine] | – | 108% | – | 5 ± 0.07 µM | –
28 | NS(=O)(=O)OC[C@@H]1C[C@@H](n2ccc3c(N[C@H]4CCc5ccccc54)ncnc32)C[C@@H]1O [Pevonedistat hydrochloride] | – | – | – | – | % Inh (% inhibition of virus infection) (SARS-CoV-2 [3]): 75.1%; CC50 at 48 h [2, 8]: 222 ± 332 µM
29 | Cc1nc2ccccc2n1Cc1ccc(Cl)cc1 [CHLORMIDAZOLE] | > 1 µM | – | – | 0.88 ± 0.82 µM | –
30 | COC(=O)C[C@](O)(CCC(C)(C)O)C(=O)O[C@@H]1C(OC)=C[C@]23CCCN2CCc2cc4c(cc2[C@H]13)OCO4 [Harringtonine] | 23.7 µM | 93.6% | 23.4 µM | – | IC50 (SARS-CoV-2 [1]; Severe acute respiratory syndrome coronavirus 2, Caco-2, read-out: IC50: concentration of 50% inhibition of virus infection, Table 5, further results of Examples 1 and 2, […]): 19 µM; IC50 (SARS-CoV-2 [1]; Severe acute respiratory syndrome coronavirus 2, Caco-2, read-out: pIC50: -log10 of IC50, Table 5, further results of Examples 1 and 2 (converted)): 19.1 µM; CC50 at 48 h ([2]; Table 5, further results of Examples 1 and 2, mean ± spread): 0.07 ± 0.06 µM
31 | Fc1ccc(C(c2ccc(F)cc2)N2CCN(C/C=C/c3ccccc3)CC2)cc1 [flunarizine] | – | 79.1% | – | 137 ± 72.3 µM | –
32 | N=C(N)c1ccc2cc(OC(=O)c3ccc(N=C(N)N)cc3)ccc2c1 [Nafamostat mesylate] | – | – | – | – | % Inh (% inhibition of virus infection) (SARS-CoV-2 [3]): 89.8%; CC50 at 48 h [2, 8]: > 20 µM
33 | CN(C)C(=O)COC(=O)Cc1ccc(OC(=O)c2ccc(NC(=N)N)cc2)cc1 [Camostat Mesilate (FOY-305), Camostat Mesilate] | – | – | – | – | % Inh (% inhibition of virus infection) (SARS-CoV-2 [3]): 86.9%; CC50 at 48 h [2, 8]: > 20 µM
34 | CCOc1ccc(Cc2nccc3cc(OCC)c(OCC)cc23)cc1OCC [ETHAVERINE HYDROCHLORIDE] | 0.54 µM | 85% | 0.537 µM | 11 ± 1.07 µM | –
35 | FC(F)(F)c1ccc(CNc2ccc(Cc3c[nH]c4ncc(Cl)cc34)cn2)cn1 [Pexidartinib] | 5.92 µM | – | 5.89 µM | 41.5 ± 32.5 µM | –
36 | CO[C@H]1CC[C@H](N2C(=O)CNc3ncc(-c4ccc(C(C)(C)O)nc4)nc32)CC1 [CC-223] | 23.6 µM | 104% | 23.4 µM | 9.49 ± 2.55 µM | –
37 | Cc1cccc(C)c1OCC(=O)N[C@@H](Cc1ccccc1)[C@@H](O)C[C@H](Cc1ccccc1)NC(=O)[C@H](C(C)C)N1CCCNC1=O [Lopinavir (ABT-378), Lopinavir] | – | 56.6% | – | 2130 ± 3590 µM | –
38 | NC(=O)c1nnn(Cc2cc(Cl)c(C(=O)c3ccc(Cl)cc3)c(Cl)c2)c1N [carboxyamidotriazole] | – | – | – | – | % Inh (% inhibition of virus infection) (SARS-CoV-2 [3]): 135.1%; CC50 at 48 h [2, 8]: 0.11 ± 0.04 µM
